The text below walks through data of patent publication US20240043392A1, “NOVEL BIPHENYL DERIVATIVE AND PREPARATION METHOD AND PHARMACEUTICAL USE THEREOF” (XI'AN XINTON PHARMACEUTCAL RESEARCH CO., LTD., priority 2021, published 2024).

Where two headings read alike, the source gives them in different places.

One data set has as its target hPD-1/hPD-L1 interaction (Homo sapiens (Human), UniProt Q9NZQ7). The note with it: read-out: PD-1/PD-L1 IC50.
The subject of data set [1] is C57BL/6 mice. Kind of data set: Acute toxicity test, intraperitoneal injection. The note with it: 125 mg/kg.
In data set [2] the test system is C57BL/6 mice. The note with it: mouse, in vivo.
Data set [3] relates to MC38-hPDL1 colon cancer cells. Also on record: species or system mice. The note with it: mouse, in vivo.
Another data set concerns the target Fc-hPD-L1 protein (Homo sapiens (Human), UniProt Q9NZQ7). It counts as binding.

hPD-1/hPD-L1 interaction, sequence (Q9NZQ7 19-238): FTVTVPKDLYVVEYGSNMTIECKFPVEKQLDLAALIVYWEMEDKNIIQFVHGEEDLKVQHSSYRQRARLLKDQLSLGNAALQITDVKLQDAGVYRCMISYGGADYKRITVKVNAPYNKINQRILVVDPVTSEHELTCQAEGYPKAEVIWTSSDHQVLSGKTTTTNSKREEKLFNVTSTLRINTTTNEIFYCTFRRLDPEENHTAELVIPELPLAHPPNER
Fc-hPD-L1 protein, sequence (Q9NZQ7 19-238 limits assumed): as the sequence (Q9NZQ7 19-238) above

“1-(4-((3′-(3-(4-((2-carbamoylpyrrolidin-1-)methyl)-1H-1,2,3-triazol-1-) Propoxy)-2,2′-dimethyl-[1,1′-biphenyl]-3-methoxy)-5-chloro-2-((5-cyanopyridine-3-)methox y)benzyl) pyrrolidine-2-carboxamide [II-4]”: the IC50 at hPD-1/hPD-L1 interaction was in the range of 0.01 to 0.1 µM.

For “5-((4-chloro-2-(((2-hydroxyethyl)amino)methyl)-5-((3′-(3-(4-(((2-hydroxyethyl)amino)methy 1 Base)-1H-1,2,3-triazol-1-)propoxy)-2,2′-dimethyl-[1,1′-biphenyl]-3-)methoxy) phenoxy) methyl)nicotinonitrile [II-2]”, the IC50 on hPD-1/hPD-L1 interaction was 0.01 to 0.1 µM.

Regarding `COc1nc(OCc2cccc(-c3ccccc3)c2C)ccc1CNCCNC(C)=O` [BMS-202], in the data set with C57BL/6 mice [1], the body weight result is “decreased significantly”; the “state of mice (clinical signs)” value was “obvious signs of convulsions and tremors”.

A word on the Kd: it is a measure of binding affinity in units of concentration. Read a low Kd as higher affinity. Take `Cc1c(COc2cc(OCc3cncc(C#N)c3)c(CN[C@@H](CO)C(=O)O)cc2Cl)cccc1-c1cccc(OCCCn2cc(CNC(CO)C(=O)O)nn2)c1C` (stereo partly drawn) [II-1, (4-((3′-(3-(4-(((1-carboxy-2-hydroxyethyl)amino)methyl)-1H-1,2,3-triazole-1-)propaneoxy)-2,2′-dimethyl-[1,1′-biphenyl]-3-)methoxy)-5-chloro-2-((5-cyanopyridin-3-)methoxy)benzyl)serine]: in the data set with C57BL/6 mice [2], the body weight entry is “nor did their body weight decrease”. Also, in data set [3], the “inhibitory effect on tumor growth” value is given as “weak inhibitory effect on tumor growth”, the “proliferation of CD3+CD4+T cell” value is reported as “can promote the proliferation”, the “proliferation of CD3+CD8+T cell” value is reported as “can promote the proliferation” and the “relative tumor inhibition rate” value was 45.8%. In addition, the tumor weight entry in data set [3] is reported as “excellent anti-tumor effect”. The molecule also displayed a Kd at Fc-hPD-L1 protein of 0.0001 to 0.1 µM. Further, the IC50 at hPD-1/hPD-L1 interaction lay within 0.0001 to 0.01 µM.

For `COc1cc(OCc2cccc(-c3cccc(OCCCn4cc(CN5CCCC5C(N)=O)nn4)c3C)c2C)c(Cl)cc1CN1CCCC1C(N)=O` (stereo not drawn) [II-8, 1-(4-((3′-(3-(4-((2-carbamoylpyrrolidin-1-)methyl)-1H-1,2,3-triazol-1-) Propoxy)-2,2′-dimethyl-[1,1′-biphenyl]-3-)methoxy)-5-chloro-2-methoxybenzyl)pyrrolidine-2-formamide], the equilibrium dissociation constant (Kd) at Fc-hPD-L1 protein was in the range of 0.0001 to 0.1 µM. Also, at hPD-1/hPD-L1 interaction, the IC50 was 0.01 to 0.1 µM.

`COc1cc(OCc2cccc(-c3cccc(OCCCn4cc(CNCCO)nn4)c3C)c2C)c(Cl)cc1CNCCO` [II-9] yielded a dissociation constant Kd on Fc-hPD-L1 protein of 0.0001 to 0.1 µM. Besides, the IC50 on hPD-1/hPD-L1 interaction lay within 0.0001 to 0.01 µM.

`COc1cc(OCc2cccc(-c3cccc(OCCCn4cc(CNCCNC(C)=O)nn4)c3C)c2C)c(Cl)cc1CNCCNC(C)=O` [II-10, N-(2-((4-((3′-(3-(4-(((2-acetylaminoethyl)amino)methyl)-1H-1,2,3-triazole-1-)propoxy)-2,2′-dimethyl-[1,1′-biphenyl]-3-)methoxy)-5-chloro-2-methoxybenzyl)amino)ethyl)acetamide]: the IC50 at hPD-1/hPD-L1 interaction lay in the range of 0.01 to 0.1 µM.

On to `COc1cc(OCc2cccc(-c3cccc(OCCCn4cc(CN5CC[C@@H](O)C5)nn4)c3C)c2C)c(Cl)cc1CN1CC[C@@H](O)C1` [II-11, (R)-1-((1-(3-((3′-((2-chloro-4-(((R)-3-hydroxypyrrolidin-1-yl)methyl)-5-methoxyphenoxy)methyl)-2,2′-dimethyl-[1,1′-biphenyl]-3-)oxy)propyl)-1H-1,2,3-triazol-4-)methyl)py rrolidin-3-ol], for which the dissociation constant (Kd) on Fc-hPD-L1 protein lay within 0.0001 to 0.1 µM. Also, at hPD-1/hPD-L1 interaction, the IC50 lay in the range of 0.01 to 0.1 µM.

For the molecule `COc1cc(OCc2cccc(-c3cccc(OCCCn4cc(CNCCC(=O)O)nn4)c3C)c2C)c(Cl)cc1CNCCC(=O)O` [II-12, 3-((4-((3′-(3-(4-(((2-carboxyethyl)amino)methyl)-1H-1,2,3-triazol-1-)propoxyl)-2,2′-dimethyl-[1,1′-biphenyl]-3-)methoxy)-5-chloro-2-methoxybenzyl)amino)propionic acid], the equilibrium dissociation constant (Kd) at Fc-hPD-L1 protein lay in the range of 0.0001 to 0.1 µM. Further, the IC50 on hPD-1/hPD-L1 interaction was in the range of 0.0001 to 0.01 µM.

For the molecule `COc1cc(OCc2cccc(-c3cccc(OCCCn4cc(CN5CCCCC5C(=O)O)nn4)c3C)c2C)c(Cl)cc1CN1CCCCC1C(=O)O` (stereo not drawn) [II-13], on hPD-1/hPD-L1 interaction, the IC50 is 0.0001 to 0.01 µM.

Consider `COc1cc(OCc2cccc(-c3cccc(OCCCn4cc(CNC(C)C(=O)O)nn4)c3C)c2C)c(Cl)cc1CN[C@@H](C)C(=O)O` (stereo partly drawn) [II-15, (4-((3′-(3-(4-(((1-carboxyethyl)amino)methyl)-1H-1,2,3-triazol-1-yl)propoxy)-2 ,2′-dimethyl-[1,1′-biphenyl]-3-)methoxy)-5-chloro-2-methoxybenzyl)alanine], for which, at hPD-1/hPD-L1 interaction, the IC50 was 0.0001 to 0.01 µM.

Regarding `CCOC(=O)[C@@H](CO)NCc1cn(CCCOc2cccc(-c3cccc(COc4cc(OCc5cncc(C#N)c5)c(CN[C@H](CO)C(=O)OCC)cc4Cl)c3C)c2C)nn1` [II-18, (5-chloro-2-((5-cyanopyridin-3-)methoxy)-4-((3′-(3-(4-((((R)-1-ethoxy-3-hydroxy-1-oxopropan-2-)amino)methyl)-1H-1,2,3-triazol-1-)propoxy)-2,2′-dimethyl-[1,1′-biphenyl]-3-)methoxy)benzyl)-D-serine ethyl ester], in the data set with C57BL/6 mice [2], the body weight result was “nor did their body weight decrease”. Moreover, in data set [3], the “proliferation of CD3+CD4+T cell” value is recorded as “can promote the proliferation”, the “proliferation of CD3+CD8+T cell” value is “can promote the proliferation”, the “relative tumor inhibition rate” value is 49.6% and the tumor weight entry was “excellent anti-tumor effect”. This molecule came in with a Kd at Fc-hPD-L1 protein of 0.1 to 1 µM. Moreover, at hPD-1/hPD-L1 interaction, the IC50 was in the range of 0.01 to 0.1 µM.

At Fc-hPD-L1 protein, `COC(=O)[C@@H](CO)NCc1cn(CCCOc2cccc(-c3cccc(COc4cc(OCc5cncc(C#N)c5)c(CN[C@H](CO)C(=O)OC)cc4Cl)c3C)c2C)nn1` [II-19, (5-chloro-2-((5-cyanopyridin-3-)methoxy)-4-((3′-(3-(4-((((R)-1-methoxy-3-hydroxy-1-oxopropan-2-)amino)methyl)-1H-1,2,3-triazol-1-)propoxy)-2,2′-dimethyl-[1,1′-biphenyl]-3-)methoxy)benzyl)-D-serine methyl ester] returned a dissociation constant (Kd) of 0.1 to 1 µM. At hPD-1/hPD-L1 interaction, the IC50 is 0.01 to 0.1 µM.

As to `CCOC(=O)CNCc1cn(CCCOc2cccc(-c3cccc(COc4cc(OCc5cncc(C#N)c5)c(CNCC(=O)OCC)cc4Cl)c3C)c2C)nn1` [II-20, (5-chloro-2-((5-cyanopyridin-3-yl)methoxy)-4-((3′-(3-(4-(((2-ethoxy-2-oxoethyl)amino)methyl)-1H-1,2,3-triazol-1-)propoxy)-2,2′-dimethyl-[1,1′-biphenyl]-3-)methoxy)benzyl)glycine ethyl ester], the Kd on Fc-hPD-L1 protein lay within 0.1 to 1 µM. For the same molecule, on hPD-1/hPD-L1 interaction, the IC50 fell in the range of 0.01 to 0.1 µM.

`CCOC(=O)[C@@H](CO)NCc1cn(CCCOc2cccc(-c3cccc(COc4cc(OC)c(CN[C@H](CO)C(=O)OCC)cc4Cl)c3C)c2C)nn1` [II-21, ((1-(3-((3′-((2-chloro-4-((((R)1-ethoxy-3-hydroxy-1-oxopropan-2-)amino)methyl)-5-methoxyphenoxy)methyl)-2,2′-dimethyl-[1,1′-biphenyl]-3-)oxy)propyl)-1H-1,2,3-triazol-4-)methyl)-D-serine ethyl ester]: the Kd on Fc-hPD-L1 protein lay in the range of 0.1 to 1 µM. The IC50 at hPD-1/hPD-L1 interaction lay within 0.01 to 0.1 µM.

With “(4-((3′-(2-(4-(((1-carboxy-2-hydroxyethyl)amino)methyl)-1H-1,2,3-triazol-1-)ethyl oxy)-2,2′-dimethyl-[1,1′-biphenyl]-3-)methoxy)-5-chloro-2-((5-cyanopyridin-3-)methoxy)ben zyl)serine [II-6]”, the IC50 at hPD-1/hPD-L1 interaction was 0.1 to 1 µM.

In turn, “(4-((3′-(3-(4-(((1-carboxy-2-hydroxyethyl)amino)methyl)-1H-1,2,3-triazol-1-)propoxy)-2,2′-d imethyl-[1,1′-biphenyl]-3-yl)methoxy)-5-chloro-2-methoxybenzyl)serine [II-7]” had a dissociation constant Kd at Fc-hPD-L1 protein of 0.0001 to 0.1 µM. Further, the IC50 at hPD-1/hPD-L1 interaction fell in the range of 0.0001 to 0.01 µM.

For “(4-((3′-(3-(4-(((1-carboxy-2-hydroxyethyl)amino)methyl)-1H-1,2,3-triazol-1-)propoxyl)-2,2′-dichloro-[1,1′-biphenyl]-3-)methoxy)-5-chloro-2-((5-cyanopyridin-3-)methoxy)benzyl)serine [II-16]”, at hPD-1/hPD-L1 interaction, the IC50 was in the range of 0.01 to 0.1 µM.

“(4-((3′-(3-(4-(((carboxymethyl)amino)methyl)-1H-1,2,3-triazol-1-)propoxy)-2,2′-dimethyl-[1,1′-biphenyl]-3-)methoxy)-5-chloro-2-((5-cyanopyridin-3-)methoxy)benzyl) glycine [II-5]”: on Fc-hPD-L1 protein, the Kd was 0.0001 to 0.1 µM. Further, the IC50 at hPD-1/hPD-L1 interaction was in the range of 0.0001 to 0.01 µM.

“(4-((3′-(3-(4-(((carboxymethyl)amino)methyl)-1H-1,2,3-triazol-1-)propoxy)-2, 2′-dichloro-[1,1′-biphenyl]-3-)methoxy)-5-chloro-2-((5-cyanopyridin-3-)methoxy)benzyl) glycine [II-17]”: on hPD-1/hPD-L1 interaction, the IC50 fell in the range of 0.1 to 1 µM.

In turn, “N-(2-((4-((3′-(3-(4-(((2-acetylaminoethyl)amino) methyl)-1H-1,2,3-triazole-1-)propoxy)-2,2′-dimethyl-[1,1′-biphenyl]-3-)methoxy)-5-chloro-2-((5-cyanopyridine-3-)methoxy) benzyl)amino)ethyl)acetamide [II-3]” came in with a Kd on Fc-hPD-L1 protein of 0.0001 to 0.1 µM. The IC50 on hPD-1/hPD-L1 interaction lay in the range of 0.01 to 0.1 µM.
